{"source": "patent US20240409585A1", "about": "“MACROCYCLIC IMMUNOMODULATORS” (priority 2021, published 2024)", "note": "Bridge positions count the residues as written; N and C are the ends. Square brackets hold non-standard residues; d marks the D form. Peptide text beside a SMILES is read from it. * marks the point of attachment. ξ: configuration not given here. Bip = N[C@@H](Cc1ccc(-c2ccccc2)cc1)C(=O)O; Phe(3-Me) = Cc1cccc(C[C@H](N)C(=O)O)c1; Bta = N[C@@H](Cc1csc2ccccc12)C(=O)O; Nva(4-oxo) = CC(=O)C[C@H](N)C(=O)O; Val(3-OH) = CC(C)(O)[C@H](N)C(=O)O; Cha = N[C@@H](CC1CCCCC1)C(=O)O; Ile(3ξ) = CCC(C)[C@H](N)C(=O)O; Carboxymethyl = O=C(O)C*; NMeA = CN[C@@H](C)C(=O)O; Orn = NCCC[C@H](N)C(=O)O; Dab = NCC[C@H](N)C(=O)O", "data": [{"biological_target": "T1, PE-labeled human PD-L1-Ig binding to Jurkat cell line over-expressing human PD-1 (Jurkat-PD-1) (Homo sapiens, UniProt Q15116)", "T1 construct": "expressed in transfected cells; host or cells: Jurkat", "T1 sequence (Q15116 25-288)": "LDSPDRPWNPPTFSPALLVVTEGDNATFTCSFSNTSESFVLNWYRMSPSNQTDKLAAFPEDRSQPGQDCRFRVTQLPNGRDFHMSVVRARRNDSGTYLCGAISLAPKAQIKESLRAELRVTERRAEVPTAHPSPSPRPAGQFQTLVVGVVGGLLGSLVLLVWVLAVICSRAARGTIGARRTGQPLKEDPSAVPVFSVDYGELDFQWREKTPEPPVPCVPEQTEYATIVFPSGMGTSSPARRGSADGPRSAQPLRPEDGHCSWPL", "experiment": "Jurkat-PD-1 Cell Binding High-Content Screening Assay (CBA): Method 1", "details": "Jurkat-hPD-1 cells, PE-labeled PD-L1-Ig 20 nM final; read-out: Jurkat HPDL1 PD1 IC50 (uM) (Method 1)", "units": {"IC50": "µM"}, "values": [{"compound": "CC(=O)C[C@@H]1NC(=O)CSC[C@@H](C(=O)NCC(N)=O)NC(=O)[C@H](CO)NC(=O)[C@H](C(C)C)NC(=O)[C@H](CC(C)C)NC(=O)[C@H](CCCNC(=N)N)NC(=O)[C@H](Cc2csc3ccccc23)NC(=O)[C@H](C)N(C)C(=O)[C@H](CCCNC(=N)N)NC(=O)[C@H](Cc2ccc(-c3ccccc3)cc2)NC(=O)[C@H](C(C)C)NC(=O)[C@H](Cc2c[nH]c3ccccc23)NC(=O)[C@H](CC(=O)O)NC(=O)[C@H](Cc2ccc(O)cc2)NC1=O", "note": "[Compound 1027] ({CH2CO}-[Nva(4-oxo)]YDWV[Bip]R[NMeA][Bta]RLVSCG-NH2; thioether N-14)", "IC50": 0.21}, {"compound": "CC(C)C[C@@H]1NC(=O)[C@H](Cc2c[nH]c3ccccc23)NC(=O)[C@H](CC(=O)O)NC(=O)[C@H](Cc2ccc(O)cc2)NC(=O)[C@H](Cc2ccccc2)NC(=O)CSC[C@@H](C(=O)NCC(N)=O)NC(=O)[C@H](CO)NC(=O)[C@H](C(C)C)NC(=O)[C@H](CC(C)C)NC(=O)[C@H](CC(N)=O)NC(=O)[C@H](CCN)NC(=O)[C@H](C)N(C)C(=O)[C@H](C(C)C)NC(=O)[C@H](Cc2ccc(-c3ccccc3)cc2)NC1=O", "note": "[Compound 1795] ({CH2CO}-FYDWL[Bip]V[NMeA][Dab]NLVSCG-NH2; thioether N-14)", "IC50": 0.16}, {"compound": "CCC(C)[C@@H]1NC(=O)[C@H](Cc2ccc(-c3ccccc3)cc2)NC(=O)[C@H](C(C)C)NC(=O)[C@H](Cc2c[nH]c3ccccc23)NC(=O)[C@H](CC(=O)O)NC(=O)[C@H](Cc2ccc(OCC(=O)O)cc2)NC(=O)[C@H](Cc2cnc[nH]2)NC(=O)CSC[C@@H](C(=O)N[C@@H](CCN)C(N)=O)NC(=O)[C@H](CO)NC(=O)[C@H](C(C)(C)O)NC(=O)[C@H](CC2CCCCC2)NC(=O)[C@H](CCN)NC(=O)[C@@H](CC(C)C)NC(=O)[C@H](C)N(C)C1=O", "note": "(stereo partly drawn) [Compound 2204] ({CH2CO}-HY(Carboxymethyl)DWV[Bip][Ile(3ξ)][NMeA][dL][Dab][Cha][Val(3-OH)]SC[Dab]-NH2; thioether N-14)", "IC50": 0.01}, {"compound": "CC(C)C[C@@H]1NC(=O)[C@H](CCCNC(=N)N)NC(=O)[C@@H](CC(C)C)NC(=O)[C@H](C)N(C)C(=O)[C@H](CCCN)NC(=O)[C@H](Cc2ccc(-c3ccccc3)cc2)NC(=O)[C@H](C(C)C)NC(=O)[C@H](Cc2c[nH]c3ccccc23)NC(=O)[C@H](CC(=O)O)NC(=O)[C@H](Cc2ccc(O)cc2)NC(=O)[C@H](Cc2ccccc2)NC(=O)CSC[C@@H](C(=O)N[C@@H](C)C(N)=O)NC(=O)[C@H]([C@@H](C)O)NC(=O)[C@H](C(C)C)NC1=O", "note": "[Compound 1123] ({CH2CO}-FYDWV[Bip][Orn][NMeA][dL]RLVTCA-NH2; thioether N-14)", "IC50": 0.06}, {"compound": "CC(C)C[C@@H]1NC(=O)[C@H](Cc2c[nH]c3ccccc23)NC(=O)[C@H](CC(=O)O)NC(=O)[C@H](Cc2ccc(C(=O)O)cc2)NC(=O)[C@H](Cc2ccc(OCC(=O)O)cc2)NC(=O)CSC[C@@H](C(=O)NCC(N)=O)NC[C@H](CO)NC(=O)[C@H](C(C)C)NC(=O)[C@H](CC2CCCCC2)NC(=O)[C@H](CC(N)=O)NC(=O)[C@@H](CC(C)C)NC(=O)[C@H](C)N(C)C(=O)[C@H](C(C)C)NC(=O)[C@H](Cc2ccc(-c3ccccc3)cc2)NC1=O", "note": "[Compound 1623]", "IC50": 0.19}, {"compound": "CCNC(=O)[C@H](CCN)NC(=O)[C@@H]1CSCC(=O)N[C@@H](Cc2ccc(OCC(=O)O)cc2)C(=O)N[C@@H](Cc2ccc(OCC(=O)O)cc2)C(=O)N[C@@H](CC(=O)O)C(=O)N[C@@H](Cc2cccc(C)c2)C(=O)N[C@@H](C(C)C)C(=O)N[C@@H](Cc2ccc(-c3ccccc3)cc2)C(=O)N[C@@H](Cc2ccc(O)cc2)C(=O)N(C)[C@@H](C)C(=O)N[C@H](CC(C)C)C(=O)N[C@@H](CCN)C(=O)N[C@@H](CC2CCCCC2)C(=O)N[C@@H](C(C)C)C(=O)N[C@@H](CCCN)C(=O)N1", "note": "[Compound 1870] ({CH2CO}-Y(Carboxymethyl)Y(Carboxymethyl)D[Phe(3-Me)]V[Bip]Y[NMeA][dL][Dab][Cha]V[Orn]C[Dab]-NHEt; thioether N-14)", "IC50": 0.01}]}]}
